The results in this text go back to ChEMBL document CHEMBL1130320, “Hypoxia-selective antitumor agents. 15. Modification of rate of nitroreduction and extent of lysosomal uptake by polysubstitution of 4-(alkylamino)-5-nitroquinoline bioreductive drugs” (J Med Chem, 1997).

The subject of series [1] is CHO-AA8. The experiment in a line: cells. The following applies: Cricetulus griseus, CHO-AA8, 18 h.
Description: Growth inhibition of aerobic AA8 cells, after 18 hours exposure
A short description of series [2]: physchem. The following applies: aqueous solution.
Description: Affinity constant determined in aqueous solution
The nature of series [3]: physchem. To be noted: aqueous solution. This is another data set of the same source.
Description: Pka was determined in aqueous solution

Structures are written as SMILES.

Consider `O=[N+]([O-])c1cccc2nccc(NCCN3CCOCC3)c12`, for which the IC50 in series [1] worked out at 18 µM. In series [2], the pKa is 6.78.
For the compound `Cc1cc(C)c2nccc(NCCCN(C)C)c2c1[N+](=O)[O-]`, half-maximal inhibition in series [1] (IC50) was put at 74 µM. For the same compound, in series [2], the pKa was found to be 6.37.
In the same order, the values of `COc1ccc([N+](=O)[O-])c2c(NCC(O)CO)ccnc12` (configuration not stated) are 50 µM and 7.1.
In the same order, the values of `Cc1ccc([N+](=O)[O-])c2c(NCCCN(C)C)cc(-c3ccccc3)nc12` are 12 µM and 5.43.
Regarding `Cc1cnc2ccc(C)c([N+](=O)[O-])c2c1NCCCN(C)C`, in series [3], the pKa worked out at 6.07. This compound returned an IC50 in series [1] of 201 µM.
The compound `COc1ccc([N+](=O)[O-])c2c(NCCCN(C)C)c(C)c(C)nc12` came in with an IC50 in series [1] of 166 µM. The compound further had a pKa in series [2] of 6.64.
`O=[N+]([O-])c1cccc2nccc(NCCCO)c12` showed a half-inhibitory concentration (IC50) in series [1] of 26 µM. Besides, the pKa in series [2] worked out at 7.06.
As for `CCCCNc1ccnc2cccc([N+](=O)[O-])c12`, the half-maximal inhibitory concentration (IC50) in series [1] came to 9.6 µM. Moreover, the pKa in series [2] came to 7.18.
In series [1], `Cc1ccc([N+](=O)[O-])c2c(NCC(O)CO)ccnc12` (configuration not stated) registered an IC50 of 110 µM. Besides, the pKa in series [2] came out at 7.2.
Regarding `Cc1nc2cccc([N+](=O)[O-])c2c(NCCCN(C)C)c1C`, half-maximal inhibition in series [1] (IC50) required 47 µM. Also, the pKa in series [2] amounted to 6.64.
For the compound `COc1cc(OC)c2nccc(NCCCN(C)C)c2c1[N+](=O)[O-]`, the IC50 in series [1] was 186 µM. In series [2], the pKa came out at 6.25.
As to `Cc1cnc2c(C)ccc([N+](=O)[O-])c2c1NCCCN(C)C`, the IC50 in series [1] turned out to be 277 µM. The same compound registered a pKa in series [2] of 6.1.
In the same order, the values of `CCc1ccc2nccc(NCCCN(C)C)c2c1[N+](=O)[O-]` are 108 µM and 6.2.
In turn, `Cc1nc2c(C)ccc([N+](=O)[O-])c2c(NCCCN(C)C)c1C` showed an IC50 in series [1] of 113 µM. For the same compound, in series [2], the pKa amounted to 6.67.
The compound `CN(C)CCNC(=O)c1ccc(NNc2ccnc3cccc([N+](=O)[O-])c23)cc1` gave a pKa in series [3] of 5.08. In series [1], this compound displayed an IC50 of 13 µM.
Take `O=[N+]([O-])c1cccc2nccc(NCC(O)CO)c12` (configuration not stated): it took 33 µM to reach half-maximal inhibition in series [1] (IC50). The same compound gave a pKa in series [2] of 6.81.

The term IC50 denotes the midpoint of a concentration-inhibition curve. High values mean lower potency, low ones higher potency. One may read the pKa as the negative logarithm of the acid dissociation constant. A low value points to a stronger acid or weaker base.
